In US4292309A, “Antibiotics C-14482 B1, B2 and B3” (Takeda Chemical Industries, Ltd., priority 1979, dated 1981):
Values after ≈ are worked out from the molar mass of the structure shown. Read-outs that look alike come from different tables or passages of the source. Values belong to the compound of their own block, whether it stands above or below them.

Legend:
Strain IFO 13725 = assay: Susceptibility toward antibiotic (minimum inhibition concentration); type: cell-based, Nocardia sp. No. C-14482; conditions: Nocardia
From the text: (§1) For example, a conventional mutagenesis effected with the strain IFO 13725 as the parent strain yields the strain IFO 13887, a variant capable of producing advantageously Antibiotic C-14482 B. This strain has the capability to produce C-14482 B in increased quantities as compared with the parent strain thereof, and is similar in taxonomical characteristics to the parent strain, except the physiological properties shown in Table 4.

Strain IFO 13887 = assay: as above; type: cell-based, Nocardia sp. No. C-14482; conditions: Nocardia
From the text: as §1

[1] = IFO13725, Strain IFO 13725, read-out: minimum inhibition concentration
[2] = IFO13887, Strain IFO 13887, read-out: minimum inhibition concentration

SMILES: O=C(N[C@H](CO)[C@H](O)c1ccc([N+](=O)[O-])cc1)C(Cl)Cl [Chloramphenicol]
MIC (Strain IFO 13725; [1]): 10 µg/mL (≈ 30.9 µM) | MIC (Strain IFO 13887; [2]): 5 µg/mL (≈ 15.5 µM)

MIC (Strain IFO 13725; [1]): 5 µg/mL (≈ 12.3 µM) | MIC (Strain IFO 13887; [2]): 20 µg/mL (≈ 49.2 µM)
SMILES: CCC[C@@H]1C[C@@H](C(=O)N[C@@H]([C@H]2O[C@H](SC)[C@H](O)[C@@H](O)[C@H]2O)[C@@H](C)O)N(C)C1 [Lincomycin]

SMILES: CC1(C)S[C@@H]2[C@H](NC(=O)Cc3ccccc3)C(=O)N2[C@H]1C(=O)O [Penicillin G]
MIC (Strain IFO 13725; [1]): 10 µg/mL (≈ 29.9 µM) | MIC (Strain IFO 13887; [2]): 50 µg/mL (≈ 150 µM)

SMILES: CO[C@H]1/C=C/O[C@@]2(C)Oc3c(C)c(O)c4c(O)c(c(/C=N/N5CCN(C)CC5)c(O)c4c3C2=O)NC(=O)/C(C)=C\C=C\[C@H](C)[C@H](O)[C@@H](C)[C@@H](O)[C@@H](C)[C@H](OC(C)=O)[C@@H]1C [Rifampicin]
MIC (Strain IFO 13725; [1]): < 0.1 µg/mL | MIC (Strain IFO 13887; [2]): < 0.1 µg/mL

SMILES: [H]/N=C(/N)N[C@H]1[C@H](O)[C@@H](O)[C@H](O[C@@H]2O[C@@H](C)[C@](O)(C=O)[C@H]2O[C@@H]2O[C@@H](CO)[C@H](O)[C@@H](O)[C@@H]2NC)[C@@H](N/C(N)=N\[H])[C@@H]1O [Streptomycin]
MIC (Strain IFO 13725; [1]): 1 µg/mL (≈ 1.72 µM) | MIC (Strain IFO 13887; [2]): 5 µg/mL (≈ 8.6 µM)

SMILES: CN(C)C1C(=O)C(C(N)=O)=C(O)C2(O)C(=O)C3=C(O)c4c(O)cccc4C(C)(O)C3CC12 (stereo not drawn) [Tetracycline]
MIC (Strain IFO 13725; IFO13725, read-out: minimum inhibition concentration): 0.5 µg/mL (≈ 1.13 µM) | MIC (Strain IFO 13887; IFO13887, read-out: minimum inhibition concentration): 1 µg/mL (≈ 2.25 µM)
